For this assay, the target named is T1, C5AR1 (Homo sapiens, UniProt P21730).
T1 construct: host or cells: CHO-K1
T1 sequence (P21730 1-350): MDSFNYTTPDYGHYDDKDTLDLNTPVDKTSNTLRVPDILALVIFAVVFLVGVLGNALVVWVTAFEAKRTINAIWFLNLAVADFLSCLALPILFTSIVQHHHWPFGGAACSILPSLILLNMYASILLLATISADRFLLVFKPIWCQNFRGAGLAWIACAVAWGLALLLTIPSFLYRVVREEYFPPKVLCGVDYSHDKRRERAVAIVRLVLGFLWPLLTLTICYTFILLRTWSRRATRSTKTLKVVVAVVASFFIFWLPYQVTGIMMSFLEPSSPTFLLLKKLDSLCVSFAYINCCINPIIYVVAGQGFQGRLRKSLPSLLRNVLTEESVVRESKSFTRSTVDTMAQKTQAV
Description: hC5a DISCO IC50 assay (PathHunter beta-arrestin, antagonist mode). Type of assay: cell-based. The following applies: CHO-K1 C5AR1 beta-arrestin cell line; antagonist vs 1-10 nM C5a agonist; geometric mean values; read-out: C5aR IC50. As for the experimental part: II. Biological Assays In Vitro Assay hC5a DISCO IC50 Assay
5 μl Antagonist at 6-fold end concentration or DMSO control is added to assay medium and subsequently 5 μl 1-10 nM C5a agonist at 6 fold end concentration. Cells are centrifuged for 1 min at 1000 rpm and incubated for 1.5 hour in at 37° C. Plates are equilibrated at room temperature for several minutes before adding 12 μl/well Detection Reagent (PathHunter Detection Kit, DiscoverX, Cat #93-0001). Plates are centrifuged for 1 min at 1000 rpm and incubated for 45 minutes at RT before being measured on a Fluostar Optima, BMG Labtech. IC50 values are calculated from a serial dilution range of antagonist using inhouse software and given in nmol/l.
The calculated IC50 values may fluctuate depending on the daily cellular assay performance. Fluctuations of this kind are known to those skilled in the art. Average IC50 values from several measurements are given as geometric mean values.
As for `COc1ccccc1Cn1c(=O)n([C@@H]2CCN(c3c(C)cccc3F)C2)c2cccc(OC)c21` [Example 110, 1-[(R)-1-(2-Fluoro-6-methyl-phenyl)-pyrrolidin-3-yl]-4-methoxy-3-(2-methoxy-benzyl)-1,3-dihydro-benzoimidazol-2-one], the IC50 turned out to be 6 nM.

For the compound `COc1cccc2c1n(Cc1ccccc1C(F)(F)F)c(=O)n2[C@@H]1CCN(c2c(F)cccc2CN2CCN(C)CC2)C1` [Example 132, 1-{(R)-1-[2-Fluoro-6-(4-methyl-piperazin-1-ylmethyl)-phenyl]-pyrrolidin-3-yl}-4-methoxy-3-(2-trifluoromethyl-benzyl)-1,3-dihydro-benzoimidazol-2-one], the IC50 was found to be 314 nM.

Turning to `COCC(C)NCc1cccc(F)c1N1CC[C@@H](n2c(=O)n(Cc3ccccc3C(F)(F)F)c3c(OC)cccc32)C1` (stereo partly drawn) [Example 142, 1-((R)-1-{2-Fluoro-6-[(2-methoxy-1-methyl-ethylamino)-methyl]-phenyl}-pyrrolidin-3-yl)-4-methoxy-3-(2-trifluoromethyl-benzyl)-1,3-dihydro-benzoimidazol-2-one], the IC50 came out at 108 nM.

Regarding `COc1nccc(C)c1N1CC[C@@H](n2c(=O)n(Cc3ccccc3C(F)(F)F)c3c(OC)nccc32)C1` [Example 47, 4-Methoxy-1-[(R)-1-(2-methoxy-4-methyl-pyridin-3-yl)-pyrrolidin-3-yl]-3-(2-trifluoromethyl-benzyl)-1,3-dihydro-imidazo[4,5-c]pyridin-2-one], the IC50 is 95 nM.

Regarding `COc1cccc2c1n(Cc1ccccc1C(F)(F)F)c(=O)n2C1CCN(c2c(F)ccnc2C)CC1` [Example 244, 1-(4′-Fluoro-2′-methyl-3,4,5,6-tetrahydro-2H-[1,3′]bipyridinyl-4-yl)-4-methoxy-3-(2-trifluoromethyl-benzyl)-1,3-dihydro-benzoimidazol-2-one], the IC50 stood at 227 nM.

With `COc1cccc2c1n(Cc1ccccc1C(F)(F)F)c(=O)n2[C@@H]1CCN(C(C)C)C1` [Example 32, 1-((R)-1-Isopropyl-pyrrolidin-3-yl)-4-methoxy-3-(2-trifluoromethyl-benzyl)-1,3-dihydro-benzoimidazol-2-one], the IC50 amounted to 642 nM.

With `COc1cccc2c1n(Cc1ccccc1C(F)(F)F)c(=O)n2C1CCN(c2c(C)ccnc2C)CC1` [Example 237, 1-(2′,4′-Dimethyl-3,4,5,6-tetrahydro-2H-[1,3′]bipyridinyl-4-yl)-4-methoxy-3-(2-trifluoromethyl-benzyl)-1,3-dihydro-benzoimidazol-2-one], the IC50 worked out at 90 nM.

As to `COc1cccc2c1n(Cc1ccccc1C(F)(F)F)c(=O)n2[C@@H]1CCN(C(=O)OC2COC2)C1` [Example 72, (R)-3-[4-Methoxy-2-oxo-3-(2-trifluoromethyl-benzyl)-2,3-dihydro-benzoimidazol-1-yl]-pyrrolidine-1-carboxylic acid oxetan-3-yl ester], the IC50 stood at 397 nM.

`COc1cccc2c1n(Cc1nccnc1OC(C)C)c(=O)n2C1CCN(c2c(C)cccc2F)CC1` [Example 178, 1-[1-(2-Fluoro-6-methyl-phenyl)-piperidin-4-yl]-3-(3-isopropoxy-pyrazin-2-ylmethyl)-4-methoxy-1,3-dihydro-benzoimidazol-2-one]: the IC50 worked out at 49 nM.

`COc1cccc2c1n(Cc1ccccc1C(F)(F)F)c(=O)n2C1CCCN(c2c(C)cccc2F)C1` (stereo not shown) [Example 212, 1-[1-(2-Fluoro-6-methyl-phenyl)-piperidin-3-yl]-4-methoxy-3-(2-trifluoromethyl-benzyl)-1,3-dihydro-benzoimidazol-2-one]: the IC50 amounted to 2080 nM.

As for `Cc1cccc(F)c1N1CC[C@@H](n2c(=O)n(Cc3ccccc3C(F)(F)F)c3c(N4CCN(C)CC4)nccc32)C1` [Example 206, 1-[(R)-1-(2-Fluoro-6-methyl-phenyl)-pyrrolidin-3-yl]-4-(4-methyl-piperazin-1-yl)-3-(2-trifluoromethyl-benzyl)-1,3-dihydro-imidazo[4,5-c]pyridin-2-one], the IC50 was 2300 nM.

As for `COc1cccc2c1n(Cc1ccccc1C(F)(F)F)c(=O)n2[C@@H]1CCN(c2c(F)cccc2C#CCN2CCOCC2)C1` [Example 159, 1-{(R)-1-[2-Fluoro-6-(3-morpholin-4-yl-prop-1-ynyl)-phenyl]-pyrrolidin-3-yl}-4-methoxy-3-(2-trifluoromethyl-benzyl)-1,3-dihydro-benzoimidazol-2-one], the IC50 turned out to be 73 nM.

As to `Cc1cccc(F)c1N1CC[C@@H](n2c(=O)n(Cc3ccccc3C(F)(F)F)c3c(OCC(O)CO)nccc32)C1` (stereo partly drawn) [Example 128, 4-(2,3-Dihydroxy-propoxy)-1-[(R)-1-(2-fluoro-6-methyl-phenyl)-pyrrolidin-3-yl]-3-(2-trifluoromethyl-benzyl)-1,3-dihydro-imidazo[4,5-c]pyridin-2-one], the IC50 came to 207 nM.

With `COc1cccc2c1n(Cc1ccccc1C(F)(F)F)c(=O)n2C1CCN(c2ccccc2OC2COC2)CC1` [Example 242, 4-Methoxy-1-{1-[2-(oxetan-3-yloxy)-phenyl]-piperidin-4-yl}-3-(2-trifluoromethyl-benzyl)-1,3-dihydro-benzoimidazol-2-one], the IC50 worked out at 74 nM.

Turning to `COc1cccc2c1n(Cc1cncnc1C(F)(F)F)c(=O)n2[C@@H]1CCN(c2c(F)cccc2C#N)C1` [Example 153, 3-Fluoro-2-{(R)-3-[4-methoxy-2-oxo-3-(4-trifluoromethyl-pyrimidin-5-ylmethyl)-2,3-dihydro-benzoimidazol-1-yl]-pyrrolidin-1-yl}-benzonitrile], the IC50 worked out at 215 nM.

Regarding `COc1cccc2c1n(Cc1ccccc1C(F)(F)F)c(=O)n2C1CCCN(C(=O)OC(C)(C)C)CC1` (stereo not shown) [Example 179, 4-[4-Methoxy-2-oxo-3-(2-trifluoromethyl-benzyl)-2,3-dihydro-benzoimidazol-1-yl]-azepane-1-carboxylic acid tert-butyl ester], the IC50 came out at 122 nM.

`COc1cncc(OC)c1N1CC[C@@H](n2c(=O)n(Cc3ccccc3C(F)(F)F)c3c(OC)cccc32)C1` [Example 38, 1-[(R)-1-(3,5-Dimethoxy-pyridin-4-yl)-pyrrolidin-3-yl]-4-methoxy-3-(2-trifluoromethyl-benzyl)-1,3-dihydro-benzoimidazol-2-one]: the IC50 was found to be 470 nM.

Regarding `Cc1cccc(F)c1N1CCC(n2c(=O)n(Cc3ccccc3C(F)(F)F)c3c(C)cccc32)CC1` [Example 245, 1-[1-(2-Fluoro-6-methyl-phenyl)-piperidin-4-yl]-4-methyl-3-(2-trifluoromethyl-benzyl)-1,3-dihydro-benzoimidazol-2-one], the concentration for half-maximal inhibition (IC50) came out at 111 nM.

Take `COc1cccc2c1n(Cc1ccccc1C(F)(F)F)c(=O)n2[C@@H]1CCN(c2c(F)cccc2Br)C1` [Example 156, 1-[(R)-1-(2-Bromo-6-fluoro-phenyl)-pyrrolidin-3-yl]-4-methoxy-3-(2-trifluoromethyl-benzyl)-1,3-dihydro-benzoimidazol-2-one]: the IC50 is 21 nM.

Regarding `N#Cc1cccc(F)c1N1CC[C@@H](n2c(=O)n(Cc3ccccc3C(F)(F)F)c3c(C(=O)NCCO)cccc32)C1` [Example 193, 1-[(R)-1-(2-Cyano-6-fluoro-phenyl)-pyrrolidin-3-yl]-2-oxo-3-(2-trifluoromethyl-benzyl)-2,3-dihydro-1H-benzoimidazole-4-carboxylic acid (2-hydroxy-ethyl)-amide], the 50% inhibitory concentration (IC50) was found to be 632 nM.

Take `COc1ccccc1Cn1c(=O)n([C@@H]2CCN(c3c(C)cccc3C)C2)c2cccc(OC)c21` [Example 67, 1-[(R)-1-(2,6-Dimethyl-phenyl)-pyrrolidin-3-yl]-4-methoxy-3-(2-methoxy-benzyl)-1,3-dihydro-benzoimidazol-2-one]: the IC50 is 36 nM.

As to `COc1cccc2c1n(Cc1ccccc1C(F)(F)F)c(=O)n2[C@@H]1CCN(c2c(F)cccc2C(C)=O)C1` [Example 90, 1-[(R)-1-(2-Acetyl-6-fluoro-phenyl)-pyrrolidin-3-yl]-4-methoxy-3-(2-trifluoromethyl-benzyl)-1,3-dihydro-benzoimidazol-2-one], the IC50 was 38 nM.

On to `Cc1cccc(F)c1N1CC[C@@H](n2c(=O)n(Cc3ccccc3C(F)(F)F)c3c(O)cccc32)C1` [Example 40, 1-[(R)-1-(2-Fluoro-6-methyl-phenyl)-pyrrolidin-3-yl]-4-hydroxy-3-(2-trifluoromethyl-benzyl)-1,3-dihydro-benzoimidazol-2-one], for which the IC50 turned out to be 6 nM.

For the compound `COc1cccc2c1n(Cc1ncccc1OC(C)C)c(=O)n2[C@@H]1CCN(c2c(C)cccc2F)C1` [Example 182, 1-[(R)-1-(2-Fluoro-6-methyl-phenyl)-pyrrolidin-3-yl]-3-(3-isopropoxy-pyridin-2-ylmethyl)-4-methoxy-1,3-dihydro-benzoimidazol-2-one], the IC50 worked out at 9 nM.

As to `COc1cccc2c1n(Cc1ccccc1C(F)(F)F)c(=O)n2C1CCN(c2c(C)c(C3CC3)nn2C)CC1` [Example 25, 1-[1-(5-Cyclopropyl-2,4-dimethyl-2H-pyrazol-3-yl)-piperidin-4-yl]-4-methoxy-3-(2-trifluoromethyl-benzyl)-1,3-dihydro-benzoimidazol-2-one], the IC50 is 185 nM.
